From PubChem BioAssay (NCI)
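Growth conditions: 96-well plates. Treatment: test compound, 48 hours, 5 concentrations. Analysis: linear interpolation between bracketing concentrations; unreached endpoints set to highest concentration. Definition used: TGI = concentration required for complete inhibition of growth.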

Assays:
Experiment in all cases: growth of human tumour cells (NCI), 48 h
SK-OV-3 ovarian = system: SK-OV-3 ovarian
SNB-19 CNS = system: SNB-19 CNS
RXF 393 renal = system: RXF 393 renal
RPMI-8226 leukemia = system: RPMI-8226 leukemia
COLO 205 colon = system: COLO 205 colon
HOP-92 NSCLC = system: HOP-92 NSCLC
MOLT-4 leukemia = system: MOLT-4 leukemia
T-47D breast = system: T-47D breast
HL-60(TB) leukemia = system: HL-60(TB) leukemia
EKVX NSCLC = system: EKVX NSCLC
NCI-H23 lung = system: NCI-H23 lung
SR leukemia = system: SR leukemia
DU-145 prostate = system: DU-145 prostate
LOX IMVI melanoma = system: LOX IMVI melanoma
CCRF-CEM leukemia = system: CCRF-CEM leukemia
IGROV1 ovarian = system: IGROV1 ovarian
UACC-257 melanoma = system: UACC-257 melanoma

Row | SMILES | TGI (SK-OV-3 ovarian) [µM] | TGI (SNB-19 CNS) [µM] | TGI (RXF 393 renal) [µM] | TGI (RPMI-8226 leukemia) [µM] | TGI (COLO 205 colon) [µM] | TGI (HOP-92 NSCLC) [µM] | TGI (MOLT-4 leukemia) [µM] | TGI (T-47D breast) [µM] | TGI (HL-60(TB) leukemia) [µM] | TGI (EKVX NSCLC) [µM] | TGI (NCI-H23 lung) [µM] | TGI (SR leukemia) [µM] | TGI (DU-145 prostate) [µM] | TGI (LOX IMVI melanoma) [µM] | TGI (CCRF-CEM leukemia) [µM] | TGI (IGROV1 ovarian) [µM] | TGI (UACC-257 melanoma) [µM]
1 | O=C(Nc1ccc(Cl)cc1)c1cc(S(=O)(=O)Nc2n[nH]c(Nc3ccc4ccccc4c3)n2)c(SSc2cc(Cl)c(C(=O)Nc3ccc(Cl)cc3)cc2S(=O)(=O)Nc2n[nH]c(Nc3ccc4ccccc4c3)n2)cc1Cl | 66.5 | 50.4 | 79.9 | > 74.7 | 38.8 | 59.8 | 42.3 | 43.6 | > 63 | > 100 | 66.5 | > 68 | > 74.4 | 37.8 | 43.6 | 56.1 | > 96.4
2 | O=c1[nH]c2cccc([N+](=O)[O-])c2c(=O)n1-c1ccc(Cl)cc1 | 28 | 45 | 37.1 | 36.1 | 16.6 | 47.9 | 43.2 | 26.8 | 53.3 | 28 | 42.1 | 35.2 | 41.1 | 59.5 | 47.1 | 40.1 | 29.6
3 | CN1CCCC2C(c3ccccc3)C(C3=NCCCC3)C(c3ccccc3)CC21 (stereo unspecified) | > 100 | > 100 | > 100 | 54.1 | 66.1 | > 100 | > 100 | > 100 | > 100 | > 100 | > 100 | > 100 | > 100 | 55.2 | > 100 | > 100 | 35
4 | Cn1c(-c2cccs2)cc(-c2cccs2)c1-c1cccs1 | > 100 | > 100 | > 100 | > 100 | 34.1 | > 100 | > 100 | > 51.8 | > 100 | > 100 | > 100 | > 100 | > 100 | > 100 | > 100 | > 100 | > 100
5 | COc1ccc(NC(=S)Nc2cc(C)ccn2)cc1 | – | > 100 | > 100 | > 100 | > 100 | > 100 | > 100 | > 100 | > 100 | > 100 | > 100 | > 100 | > 100 | > 100 | > 100 | > 100 | > 100
6 | O=S(=O)(O)CCSSCCS(=O)(=O)O | > 1000 | > 1000 | > 1000 | > 1000 | > 1000 | > 1000 | > 1000 | > 1000 | > 1000 | > 1000 | > 1000 | > 1000 | > 1000 | > 1000 | > 1000 | > 1000 | > 1000
7 | CC(=O)OCC1OC(NC(=S)Nn2c(=O)[nH]c3ccccc3c2=O)C(OC(C)=O)C(OC(C)=O)C1OC(C)=O (stereo unspecified) | > 100 | > 100 | > 100 | > 100 | > 100 | > 100 | > 100 | > 100 | > 100 | > 100 | > 100 | > 100 | > 100 | > 100 | > 100 | > 100 | > 100
8 | COC(=O)C1C2OC(C)(C)OC2CN1S(=O)(=O)c1ccc(C)cc1 (stereo unspecified) | > 100 | > 100 | > 100 | > 100 | > 100 | > 100 | > 100 | > 100 | > 100 | > 100 | > 100 | > 100 | > 100 | > 100 | > 100 | > 100 | > 100
9 | CCCCCCCCCCCCCCCCP(=O)(O)OCC(N)C(=O)O (stereo unspecified) | > 100 | 44.8 | 75.1 | 62.7 | > 100 | 48.2 | 42.4 | > 100 | 39.2 | > 100 | > 100 | 91.3 | > 100 | 40.1 | > 100 | 28.9 | > 100
10 | C1C2CC3CC1CC(c1nn4c(C56CC7CC(CC(C7)C5)C6)nnc4s1)(C2)C3 | > 100 | > 100 | > 100 | > 100 | > 100 | > 100 | > 100 | > 100 | > 100 | > 100 | > 100 | > 100 | > 100 | > 100 | > 100 | > 100 | –
11 | COc1cc(C(=O)NNC(=O)c2cc(Br)ccc2NC(=O)c2cccs2)cc(OC)c1OC | 36.5 | 74.3 | 29.1 | 43.5 | 25.5 | 46.9 | > 100 | > 100 | 93.6 | 27 | 57.1 | > 100 | > 100 | 37.1 | > 100 | > 100 | 56.9
12 | CC(=O)c1c(-c2ccc(Cl)cc2)c(-c2ccc(Cl)cc2)n[nH]c1=O | > 100 | > 100 | > 100 | 55.4 | > 100 | > 100 | > 100 | > 100 | 68.8 | > 100 | > 100 | > 100 | > 100 | 73.9 | > 100 | > 100 | > 100
13 | COc1ccc(CNc2ccn(C3OC(CO)C(O)C3O)c(=O)n2)cc1 (stereo unspecified) | > 100 | > 100 | > 100 | > 100 | > 100 | > 100 | > 100 | 94.7 | 83.3 | > 100 | > 100 | > 100 | > 100 | > 100 | > 100 | > 100 | > 100
14 | CC(NC(=O)OCc1ccccc1)NC(=O)OC(C)(C)C (stereo unspecified) | > 100 | > 100 | 84.3 | > 100 | > 100 | > 100 | > 100 | > 100 | > 100 | > 100 | > 100 | > 100 | > 100 | > 100 | > 100 | > 100 | > 100
15 | COc1cc(C2C3=C(COC3=O)OC(C)(C)Oc3cc4c(cc32)OCO4)cc(OC)c1O (stereo unspecified) | > 100 | > 100 | 0.552 | > 100 | 6.68 | > 94.5 | > 100 | > 100 | 1.49 | > 100 | > 22.1 | > 100 | > 100 | > 100 | > 100 | > 100 | > 100
16 | Cc1sc2nc(N(C)C)oc(=O)c2c1C | > 100 | > 100 | > 100 | > 100 | > 100 | > 100 | > 100 | > 100 | > 100 | > 100 | > 100 | > 100 | > 100 | > 100 | > 100 | > 100 | > 100
17 | COC(=O)/C(C)=N/NC(=S)SC | > 100 | – | 97 | > 100 | – | > 100 | > 100 | 80.6 | 28.5 | > 100 | > 100 | > 100 | > 100 | > 100 | 11 | > 100 | > 100
18 | Cc1nc2ccccc2c(=O)n1NC(=O)c1ccccn1 | > 100 | > 100 | > 100 | > 100 | > 100 | > 100 | > 100 | > 100 | > 100 | > 100 | > 100 | > 100 | > 100 | > 100 | > 100 | > 100 | > 100
19 | CC1=NN(c2cccc(S(=O)(=O)O)c2)C2(C1)C(Cl)C(=O)N2c1nc2ccccc2s1 (stereo unspecified) | 24.2 | 27 | 22.8 | 4.47 | 24.8 | 9.95 | 11.8 | 40.4 | 7.16 | 26.7 | 13.5 | 17.4 | 25.2 | 3.77 | 3.67 | 3.5 | 28.3
20 | Cc1cccc2nc(-c3ccccc3)cc(=O)n12 | > 100 | > 100 | > 100 | > 100 | > 100 | > 100 | > 100 | > 100 | > 100 | > 100 | > 100 | > 100 | > 100 | – | > 100 | > 100 | > 100
21 | CC(C)OC(=O)c1ccc(NCC2=CC(=O)C=CC2=O)cc1 | > 100 | > 100 | 26.2 | > 24.8 | 13.7 | 8.83 | 6.14 | 7.95 | 5.24 | 31.7 | 29 | 8.37 | 35.8 | 26.2 | 6.48 | 26.4 | 27.2
22 | COC(=O)c1ccccc1/C=C1\Cc2c(ccc3c2CCC3)C1=O | – | > 100 | > 100 | > 100 | > 100 | > 100 | > 100 | > 100 | > 100 | > 100 | > 100 | > 100 | > 100 | > 100 | > 100 | > 100 | > 100
23 | NC(=O)NC1NC(=O)NC1=O (stereo unspecified) | > 100 | > 100 | > 100 | > 100 | > 100 | > 100 | > 100 | > 100 | > 100 | > 100 | > 100 | > 100 | > 100 | > 100 | > 100 | > 100 | > 100
24 | CC(C)C[C@H]1[C@@H](OCc2ccccc2)COS(=O)(=O)N1[C@H](C)c1ccccc1 | > 100 | > 100 | > 100 | > 74.7 | > 100 | > 100 | > 74.7 | 39.7 | > 69.7 | > 100 | > 100 | > 83.7 | > 100 | > 100 | > 100 | > 100 | > 100
25 | C=CCN1C(=O)/C(=C/c2ccc(Cl)cc2)N=C1SC/C=C/C | > 100 | > 100 | 55.3 | 47.3 | > 100 | 84.2 | 43.8 | > 100 | 57.5 | > 100 | > 100 | 46.7 | > 100 | > 100 | > 100 | > 100 | > 100
26 | O=C1c2ccccc2C(=O)C2NC(CCCCCSSCCCCCC3=NC4C(=O)c5ccccc5C(=O)C4N3)=NC12 (stereo unspecified) | > 100 | – | > 100 | > 100 | – | 69.2 | > 100 | > 100 | > 100 | > 100 | > 100 | > 100 | > 100 | > 100 | > 100 | > 100 | > 100
27 | CN1CCC23c4c5ccc(Oc6nnnn6-c6ccccc6)c4OC2c2[nH]c4ccccc4c2CC3(O)C1C5 (stereo unspecified) | 25.4 | 22.4 | 5.67 | 6.06 | – | 7.71 | 5.33 | 23.1 | 3.69 | 24.2 | 33.7 | 3.72 | 19.6 | 3.75 | 4.19 | 23 | 3.32
28 | O=c1[nH]c(=O)n(C/C=C/CO)nc1Br | – | > 100 | > 100 | > 100 | > 100 | > 100 | > 100 | > 100 | > 100 | > 100 | > 100 | > 100 | > 100 | > 100 | > 100 | > 100 | > 100
